Test results published in ChEMBL document CHEMBL1938342 (J Med Chem, 2011).
Activity calls are given as the source filed them. No cut-off for these calls is given here.

Tests used:
Carbonic anhydrase 12 = Carbonic anhydrase 12 (Homo sapiens, UniProt O43570); assay: Inhibition of human recombinant CA12 after 6 hrs by stopped flow CO2 hydration assay
Carbonic anhydrase 1 = Carbonic anhydrase 1 (Homo sapiens, UniProt P00915); assay: Inhibition of human full-length cytosolic CA1 after 6 hrs by stopped flow CO2 hydration assay
Carbonic anhydrase 2 = Carbonic anhydrase 2 (Homo sapiens, UniProt P00918); assay: Inhibition of human full-length cytosolic CA2 after 6 hrs by stopped flow CO2 hydration assay
Carbonic anhydrase 9 = Carbonic anhydrase 9 (Homo sapiens, UniProt Q16790); assay: Inhibition of human recombinant CA9 after 6 hrs by stopped flow CO2 hydration assay
4T1 = assay: Anticancer activity against mouse 4T1 cells expressing CA9 xenografted in BALB/c mouse assessed as tumor growth inhibition at 30 mg/kg, iv administered on days 11,13,16 and 19
Mus musculus [1] = assay: Toxicity in mouse 4T1 cells expressing CA9 xenografted BALB/c mouse assessed as weight loss at 30 mg/kg, iv administered on days 11,13,16 and 19; settings: in vivo
Mus musculus [2] = assay: Toxicity in mouse 4T1 cells expressing […] xenografted BALB/c mouse assessed as mortality at 30 mg/kg, iv administered on days 11,13,16 and 19; type: organism-based; parameters: dose 30 mg/kg, route intravenous; settings: in vivo

Carbonic anhydrase 1, sequence (P00915 whole entry): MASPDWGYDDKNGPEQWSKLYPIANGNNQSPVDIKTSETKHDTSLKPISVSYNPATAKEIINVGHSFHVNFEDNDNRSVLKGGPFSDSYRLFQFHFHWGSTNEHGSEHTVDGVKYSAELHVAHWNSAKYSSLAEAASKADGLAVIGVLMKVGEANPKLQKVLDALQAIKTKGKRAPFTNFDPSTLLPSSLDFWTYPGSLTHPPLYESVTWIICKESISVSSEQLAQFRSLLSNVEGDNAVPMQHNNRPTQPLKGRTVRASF
Carbonic anhydrase 12, sequence (O43570 whole entry): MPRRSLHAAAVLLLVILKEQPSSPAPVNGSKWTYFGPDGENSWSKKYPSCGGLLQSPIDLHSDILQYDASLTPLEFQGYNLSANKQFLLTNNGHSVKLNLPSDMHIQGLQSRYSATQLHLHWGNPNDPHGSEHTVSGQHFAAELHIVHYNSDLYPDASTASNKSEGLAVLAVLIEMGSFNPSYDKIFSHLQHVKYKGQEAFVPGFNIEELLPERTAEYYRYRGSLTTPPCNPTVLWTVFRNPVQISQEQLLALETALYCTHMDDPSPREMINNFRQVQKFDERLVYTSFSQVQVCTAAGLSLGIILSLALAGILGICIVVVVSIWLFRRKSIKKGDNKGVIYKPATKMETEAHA

SMILES	Ki (Carbonic anhydrase 12)	Ki (Carbonic anhydrase 1)	Ki (Carbonic anhydrase 2)	Ki (Carbonic anhydrase 9)	growth inhibition (GI) (4T1)	Activity (Mus musculus [1])	Activity (Mus musculus [2])
Cc1cc(=O)oc2cc(O[C@@H]3O[C@H](CO)[C@@H](O)[C@H](O)[C@H]3O)ccc12	54 nM	1000 nM	> 100000 nM	370 nM	–	–	–
Cc1cc(=O)oc2cc(O[C@@H]3O[C@H](CO[C@H]4O[C@H](CO)[C@H](O)[C@H](O)[C@H]4O)[C@@H](O)[C@H](O)[C@H]3O)ccc12	101 nM	880 nM	590 nM	820 nM	–	–	–
Cc1cc(=O)oc2cc(O[C@H]3O[C@H](CO)[C@@H](O)[C@H](O)[C@@H]3O)ccc12	43 nM	> 100000 nM	> 100000 nM	9.2 nM	Active	Non-toxic	Non-toxic
Cc1cc(=O)oc2cc(O[C@@H]3O[C@H](CO)[C@H](O)[C@H](O)[C@H]3O)ccc12	8.5 nM	590 nM	77000 nM	93 nM	–	–	–
Cc1cc(=O)oc2cc(O)ccc12 [HYMECROMONE]	8100 nM	> 100000 nM	> 100000 nM	560 nM	–	–	–
Cc1cc(=O)oc2cc(O[C@@H]3O[C@@H](C)[C@H](O)[C@@H](O)[C@H]3O)ccc12	184 nM	> 100000 nM	> 100000 nM	201 nM	–	–	–
